Source: US20260297118A1, “SUBSTITUTED PYRIMIDINONE AND AZAPYRIMIDINONE COMPOUNDS, COMPOSITIONS, AND USES THEREOF” (LAKEWOOD AMEDEX, INC., priority 2023, published 2026)

Assays:
Type in all cases: cell-based
[1] = test system: Pseudomonas aeruginosa (6326); experiment: MIC, broth microdilution, Pseudomonas aeruginosa (6326); conditions: pH 4-5, 18 to 24 hours
Experimental: (§1) MIC testing is conducted using the broth (Mueller Hinton Broth) microdilution procedures relevant to each organism group as established by the Clinical and Laboratory Standards Institute (CLSI; 3-7). MIC plates are prepared in accordance with CLSI (3-7). To prepare the test plates, automated liquid handlers are used to conduct serial dilutions and liquid transfers. Automated liquid handlers utilized in this study include the Multidrop 384 (Labsystems, Helsinki, Finland) and the Biomek 2000 (Beckman Coulter, Fullerton CA). The solution is diluted to desired pH using 1 M Citric Acid or 1 M NaOH buffer. A standardized inoculum of each test organism is prepared per CLSI methods (3, 5-7) to equal a 0.5 McFarland standard in the appropriate media followed by an additional 1:20 dilution (1:10 for anaerobes).
(§2) The plates are then inoculated with 10 μL of the diluted 0.5 McFarland suspension using the Biomek 2000 from low to high drug concentration, resulting in a final concentration of approximately 5×10^5 CFU/mL per well. An un-inoculated plate is incubated for the purpose of assessing solubility of the drug in the test media. The plates are stacked 3 to 4 high, covered with a sterile lid on the top plate, and incubated for 18 to 24 hours according to CLSI. The MIC is recorded as the lowest concentration of respective compound that inhibited visible growth of the organism.

Escherichia coli (0102) = experiment: MIC, broth microdilution, Escherichia coli (0102); conditions: pH 4-5, 18 to 24 hours
Experimental: as §1, §2

[2] = test system: Pseudomonas aeruginosa (6160); experiment: MIC, broth microdilution, Pseudomonas aeruginosa (6160); conditions: pH 4-5, 18 to 24 hours
Experimental: as §1, §2

Escherichia coli (6259) = experiment: MIC, broth microdilution, Escherichia coli (6259); conditions: pH 4-5, 18 to 24 hours
Experimental: as §1, §2

Escherichia coli (6258) = experiment: MIC, broth microdilution, Escherichia coli (6258); conditions: pH 4-5, 18 to 24 hours
Experimental: as §1, §2

Escherichia coli (6260) = experiment: MIC, broth microdilution, Escherichia coli (6260); conditions: pH 4-5, 18 to 24 hours
Experimental: as §1, §2

[3] = test system: Pseudomonas aeruginosa (6234); experiment: MIC, broth microdilution, Pseudomonas aeruginosa (6234); conditions: pH 4-5, 18 to 24 hours
Experimental: as §1, §2

Escherichia coli (6098) = experiment: MIC, broth microdilution, Escherichia coli (6098); conditions: pH 4-5, 18 to 24 hours
Experimental: as §1, §2

[4] = test system: Pseudomonas aeruginosa (6328); experiment: MIC, broth microdilution, Pseudomonas aeruginosa (6328); conditions: pH 4-5, 18 to 24 hours
Experimental: as §1, §2

[5] = test system: Pseudomonas aeruginosa (0103); experiment: MIC, broth microdilution, Pseudomonas aeruginosa (0103); conditions: pH 4-5, 18 to 24 hours
Experimental: as §1, §2

E. faecalis MMX-3353 = experiment: MIC, broth microdilution, E. faecalis MMX-3353; conditions: E. faecalis MMX-3353, Gram +ve; pH 3; 18 to 24 hours
Experimental: as §1, §2

[6] = test system: S. dysgalactiae ATCC-6644; experiment: MIC, broth microdilution, S. dysgalactiae ATCC-6644; set-up: unit not given beside the values; conditions: S. dysgalactiae ATCC-6644, Gram +ve; pH 3; 18 to 24 hours
Experimental: as §1, §2

E. coli MMX-8870 = experiment: MIC, broth microdilution, E. coli MMX-8870; conditions: E. coli MMX-8870, Gram −ve; pH 3; 18 to 24 hours
Experimental: as §1, §2

[7] = test system: K. pneumoniae ATCC BAA-2146; experiment: MIC, broth microdilution, K. pneumoniae ATCC BAA-2146; set-up: unit not given beside the values; conditions: K. pneumoniae ATCC BAA-2146, Gram −ve; pH 3; 18 to 24 hours
Experimental: as §1, §2

S. agalactiae ATCC-13813 = experiment: MIC, broth microdilution, S. agalactiae ATCC-13813; set-up: unit not given beside the values; conditions: S. agalactiae ATCC-13813, Gram +ve; pH 3; 18 to 24 hours
Experimental: as §1, §2

[8] = test system: Pseudomonas aeruginosa (27853); experiment: MIC, broth microdilution, Pseudomonas aeruginosa (27853); conditions: pH 3, Mueller Hinton Broth, 18 to 24 hours, read-out: MIC
Experimental: as §1, §2

[9] = test system: S. saprophyticus ATCC-49907; experiment: MIC, broth microdilution, S. saprophyticus ATCC-49907; set-up: unit not given beside the values; conditions: S. saprophyticus ATCC-49907, Gram +ve; pH 3; 18 to 24 hours
Experimental: as §1, §2

S. aureus ATCC -3591 = experiment: MIC, broth microdilution, S. aureus ATCC -3591; set-up: unit not given beside the values; conditions: S. aureus ATCC -3591, Gram +ve; pH 3; 18 to 24 hours
Experimental: as §1, §2

[10] = test system: A. radioresistens MMX-8551; experiment: MIC, broth microdilution, A. radioresistens MMX-8551; set-up: unit not given beside the values; conditions: A. radioresistens MMX-8551, Gram −ve; pH 3; 18 to 24 hours
Experimental: as §1, §2

C. freundii CDC-0157 = experiment: MIC, broth microdilution, C. freundii CDC-0157; set-up: unit not given beside the values; conditions: C. freundii CDC-0157, Gram −ve; pH 3; 18 to 24 hours
Experimental: as §1, §2

E. faecalis ATCC-29212 = experiment: MIC, broth microdilution, E. faecalis ATCC-29212; set-up: unit not given beside the values; conditions: E. faecalis ATCC-29212, Gram +ve; pH 3; 18 to 24 hours
Experimental: as §1, §2

H. influenzae ATCC-49247 = experiment: MIC, broth microdilution, H. influenzae ATCC-49247; set-up: unit not given beside the values; conditions: H. influenzae ATCC-49247, Gram −ve; pH 3; 18 to 24 hours
Experimental: as §1, §2

E. coli ATCC-25922 = experiment: MIC, broth microdilution, E. coli ATCC-25922; set-up: unit not given beside the values; conditions: E. coli ATCC-25922, Gram −ve; pH 3; 18 to 24 hours
Experimental: as §1, §2

E. cloacae ATCC BAA-2468 = experiment: MIC, broth microdilution, E. cloacae ATCC BAA-2468; set-up: unit not given beside the values; conditions: E. cloacae ATCC BAA-2468, Gram −ve; pH 3; 18 to 24 hours
Experimental: as §1, §2

P. aeruginosa ATCC-27853 = experiment: MIC, broth microdilution, P. aeruginosa ATCC-27853; set-up: unit not given beside the values; conditions: P. aeruginosa ATCC-27853, Gram −ve; pH 3; 18 to 24 hours
Experimental: as §1, §2

Escherichia coli (25922) = experiment: MIC, broth microdilution, Escherichia coli (25922); conditions: pH 3, Mueller Hinton Broth, 18 to 24 hours, read-out: MIC
Experimental: as §1, §2

K. pneumoniae ATCC-43816 = experiment: MIC, broth microdilution, K. pneumoniae ATCC-43816; set-up: unit not given beside the values; conditions: K. pneumoniae ATCC-43816, Gram −ve; pH 3; 18 to 24 hours
Experimental: as §1, §2

E. faecium ATCC-35667 = experiment: MIC, broth microdilution, E. faecium ATCC-35667; conditions: E. faecium ATCC-35667, Gram +ve; pH 3; 18 to 24 hours
Experimental: as §1, §2

[11] = test system: Staphylococcus aureus (43330); experiment: MIC, broth microdilution, Staphylococcus aureus (43330); conditions: pH 3, Mueller Hinton Broth, 18 to 24 hours, read-out: MIC
Experimental: as §1, §2

S. pyogenes ATCC-49399 = experiment: MIC, broth microdilution, S. pyogenes ATCC-49399; set-up: unit not given beside the values; conditions: S. pyogenes ATCC-49399, Gram +ve; pH 3; 18 to 24 hours
Experimental: as §1, §2

M. morganii CDC-0519 = experiment: MIC, broth microdilution, M. morganii CDC-0519; set-up: unit not given beside the values; conditions: M. morganii CDC-0519, Gram −ve; pH 3; 18 to 24 hours
Experimental: as §1, §2

A. baumannii ATCC-19606 = experiment: MIC, broth microdilution, A. baumannii ATCC-19606; set-up: unit not given beside the values; conditions: A. baumannii ATCC-19606, Gram −ve; pH 3; 18 to 24 hours
Experimental: as §1, §2

[12] = test system: S. haemolyticus ATCC-29970; experiment: MIC, broth microdilution, S. haemolyticus ATCC-29970; conditions: S. haemolyticus ATCC-29970, Gram +ve; pH 3; 18 to 24 hours
Experimental: as §1, §2

Candida albicans (22972) = experiment: MIC, broth microdilution, Candida albicans (22972); conditions: pH 3, Mueller Hinton Broth, 18 to 24 hours, read-out: MIC
Experimental: as §1, §2

S. aureus ATCC-29213 = experiment: MIC, broth microdilution, S. aureus ATCC-29213; set-up: unit not given beside the values; conditions: S. aureus ATCC-29213, Gram +ve; pH 3; 18 to 24 hours
Experimental: as §1, §2

P. mirabilis CDC-0155 = experiment: MIC, broth microdilution, P. mirabilis CDC-0155; set-up: unit not given beside the values; conditions: P. mirabilis CDC-0155, Gram −ve; pH 3; 18 to 24 hours
Experimental: as §1, §2

E. faecium MMX-3355 = experiment: MIC, broth microdilution, E. faecium MMX-3355; set-up: unit not given beside the values; conditions: E. faecium MMX-3355, Gram +ve; pH 3; 18 to 24 hours
Experimental: as §1, §2

C. striatum ATCC-6940 = experiment: MIC, broth microdilution, C. striatum ATCC-6940; conditions: C. striatum ATCC-6940, Gram +ve; pH 3; 18 to 24 hours
Experimental: as §1, §2

Compound: CCCCOP(=O)(O)OC[C@H]1O[C@@H](n2ccc(N)nc2=O)[C@H](OC)[C@@H]1O [R-5, (2R,3S,4R,5R)-5-(4-amino-2-oxopyrimidin-1(2H)-yl)-3-hydroxy-4-methoxy-tetrahydrofuran-2-methyl butyl phosphate]
- MIC [1]: 25 mg/mL
- MIC (Escherichia coli (0102)): 50 mg/mL
- MIC [2]: 25 mg/mL
- MIC (Escherichia coli (6259)): 50 mg/mL
- MIC (Escherichia coli (6258)): 100 mg/mL
- MIC (Escherichia coli (6260)): 100 mg/mL
- MIC [3]: 25 mg/mL
- MIC (Escherichia coli (6098)): 100 mg/mL
- MIC [4]: 25 mg/mL
- MIC [5]: 25 mg/mL

Compound: CCCCOP(=O)(O)OC[C@H]1O[C@@H](n2ccc(N(C)C)nc2=O)C[C@@H]1O [LAI-008, butyl (((2R,3S,5R)-5-(4-(N,N-dimethylamino)-2-oxopyrimidin-1(2H)-yl)-3-hydroxytetrahydrofuran-2-yl)methyl) hydrogen phosphate]
- MIC (E. faecalis MMX-3353): 6.25
- MIC [6]: 3.12
- MIC (E. coli MMX-8870): 12.50
- MIC [7]: 12.50
- MIC (S. agalactiae ATCC-13813): 3.12
- MIC [8]: 5 mg/mL
- MIC [9]: 3.13
- MIC (S. aureus ATCC -3591): 6.25
- MIC [10]: 12.50
- MIC (C. freundii CDC-0157): 3.13
- MIC (E. faecalis ATCC-29212): 3.13
- MIC (H. influenzae ATCC-49247): 0.78
- MIC (E. coli ATCC-25922): 6.25
- MIC (E. cloacae ATCC BAA-2468): 12.50
- MIC (P. aeruginosa ATCC-27853): 5.63
- MIC (Escherichia coli (25922)): 1 mg/mL
- MIC (K. pneumoniae ATCC-43816): 12.50
- MIC (E. faecium ATCC-35667): 3.13
- MIC [11]: 25 mg/mL
- MIC (S. pyogenes ATCC-49399): 3.12
- MIC (M. morganii CDC-0519): 3.13
- MIC (A. baumannii ATCC-19606): 12.50
- MIC [12]: 0.39
- MIC (Candida albicans (22972)): 50 mg/mL
- MIC (S. aureus ATCC-29213): 1.56
- MIC (P. mirabilis CDC-0155): 3.13
- MIC (E. faecium MMX-3355): 3.13
- MIC (C. striatum ATCC-6940): 3.12
